The source of these data is ChEMBL document CHEMBL1157917, “Structure-based rational design, synthesis and antifungal activity of oxime-containing azole derivatives” (2010).

Holding throughout (format): functional
One assay relates to Candida albicans. The experiment in a line: Antifungal activity against Candida albicans after 24 hrs by serial dilution method.
The subject of a further assay is Candida tropicalis. The experiment in a line: Antifungal activity against Candida tropicalis after 24 hrs by serial dilution method.
Another assay concerns Candida parapsilosis. The experiment in a line: Antifungal activity against Candida parapsilosis after 24 hrs by serial dilution method. The note with it: Lodderomyces parapsilosis.
For a further assay, the system named is Pichia kudriavzevii. Put plainly: Antifungal activity against Candida krusei after 24 hrs by serial dilution method.
A further assay deals with Cryptococcus neoformans. Put plainly: Antifungal activity against Cryptococcus neoformans after 72 hrs by serial dilution method.
Another assay concerns Trichophyton rubrum. The experiment in a line: Antifungal activity against Trichophyton rubrum after 7 days by serial dilution method. Particulars: 168 h.
For the next assay, the system named is Aspergillus fumigatus. Put plainly: Antifungal activity against Aspergillus fumigatus after 7 days by serial dilution method. Particulars: 168 h.

Values after ≈ are worked out from the molar mass of the structure shown.

Take `ON=C1CCN(CC(O)(Cn2cncn2)c2ccc(F)cc2F)CC1` (stereo unspecified): the MIC80 turned out to be 1 µg/mL (≈ 2.85 µM) against Candida albicans; 1 µg/mL (≈ 2.85 µM) against Candida tropicalis; 16 µg/mL (≈ 45.5 µM) against Candida parapsilosis; 4 µg/mL (≈ 11.4 µM) against Pichia kudriavzevii; 1 µg/mL (≈ 2.85 µM) in the assay on Cryptococcus neoformans; 16 µg/mL (≈ 45.5 µM) in the assay on Trichophyton rubrum. This compound displayed an MIC80 in the assay on Aspergillus fumigatus of more than 64 µg/mL.
As for `OC(CN1CCC(=NOCc2cccc3ccccc23)CC1)(Cn1cncn1)c1ccc(F)cc1F` (racemic), the MIC80 stood at 0.0625 µg/mL (≈ 0.127 µM) against Candida albicans; 0.25 µg/mL (≈ 0.509 µM) against Candida tropicalis; 0.0625 µg/mL (≈ 0.127 µM) in the assay on Candida parapsilosis; 4 µg/mL (≈ 8.14 µM) against Pichia kudriavzevii; 0.0625 µg/mL (≈ 0.127 µM) in the assay on Cryptococcus neoformans; 0.25 µg/mL (≈ 0.509 µM) in the assay on Trichophyton rubrum. Moreover, the MIC80 against Aspergillus fumigatus came to 1 µg/mL (≈ 2.03 µM).
As for `OC(CN1CCC(=NOCc2ccc(Br)cc2)CC1)(Cn1cncn1)c1ccc(F)cc1F` (racemic), the MIC80 worked out at 0.016 µg/mL (≈ 0.0307 µM) in the assay with Candida albicans; 0.004 µg/mL (≈ 0.00769 µM) against Candida tropicalis; 0.016 µg/mL (≈ 0.0307 µM) against Candida parapsilosis; 0.25 µg/mL (≈ 0.48 µM) in the assay on Pichia kudriavzevii; 0.016 µg/mL (≈ 0.0307 µM) in the assay on Cryptococcus neoformans; 0.016 µg/mL (≈ 0.0307 µM) against Trichophyton rubrum. This compound also yielded an MIC80 in the assay with Aspergillus fumigatus of 1 µg/mL (≈ 1.92 µM).
`OC(CN1CCC(=NOCc2cccc(Br)c2)CC1)(Cn1cncn1)c1ccc(F)cc1F` (racemic): the MIC80 with Candida albicans was 0.016 µg/mL (≈ 0.0307 µM); against Candida tropicalis, 0.004 µg/mL (≈ 0.00769 µM); against Candida parapsilosis, 0.016 µg/mL (≈ 0.0307 µM); with Pichia kudriavzevii, 0.25 µg/mL (≈ 0.48 µM); in the assay on Cryptococcus neoformans, 0.016 µg/mL (≈ 0.0307 µM); in the assay on Trichophyton rubrum, 0.0625 µg/mL (≈ 0.12 µM). The compound also registered an MIC80 in the assay with Aspergillus fumigatus of 1 µg/mL (≈ 1.92 µM).
As to `OC(CN1CCC(=NOCc2ccccc2Cl)CC1)(Cn1cncn1)c1ccc(F)cc1F` (racemic), the MIC80 in the assay with Candida albicans was 0.016 µg/mL (≈ 0.0336 µM); in the assay with Candida tropicalis it was 0.016 µg/mL (≈ 0.0336 µM); in the assay with Candida parapsilosis it was 0.004 µg/mL (≈ 0.0084 µM); against Pichia kudriavzevii it was 0.25 µg/mL (≈ 0.525 µM); with Cryptococcus neoformans, 0.016 µg/mL (≈ 0.0336 µM); in the assay on Trichophyton rubrum it was 0.0625 µg/mL (≈ 0.131 µM). Further, in the assay on Aspergillus fumigatus, the MIC80 is 1 µg/mL (≈ 2.1 µM).
In the case of `OC(CN1CCC(=NOCc2ccccc2)CC1)(Cn1cncn1)c1ccc(F)cc1F` (racemic), the MIC80 amounted to 0.004 µg/mL (≈ 0.00906 µM) with Candida albicans; 0.001 µg/mL (≈ 0.00227 µM) with Candida tropicalis; 0.004 µg/mL (≈ 0.00906 µM) in the assay on Candida parapsilosis; 0.0625 µg/mL (≈ 0.142 µM) against Pichia kudriavzevii; 0.016 µg/mL (≈ 0.0362 µM) against Cryptococcus neoformans; 0.0625 µg/mL (≈ 0.142 µM) with Trichophyton rubrum. The MIC80 in the assay with Aspergillus fumigatus worked out at 1 µg/mL (≈ 2.27 µM).
`OC(CN1CCC(=NOCc2ccccc2Br)CC1)(Cn1cncn1)c1ccc(F)cc1F` (racemic): the MIC80 with Candida albicans was found to be 0.016 µg/mL (≈ 0.0307 µM); with Candida tropicalis it was 0.004 µg/mL (≈ 0.00769 µM); in the assay on Candida parapsilosis, 0.0625 µg/mL (≈ 0.12 µM); in the assay on Pichia kudriavzevii it was 0.25 µg/mL (≈ 0.48 µM); with Cryptococcus neoformans, 0.004 µg/mL (≈ 0.00769 µM); with Trichophyton rubrum, 0.0625 µg/mL (≈ 0.12 µM). In the assay on Aspergillus fumigatus, this compound returned an MIC80 of 1 µg/mL (≈ 1.92 µM).
Turning to `OC(CN1CCC(=NOCc2ccc(F)cc2)CC1)(Cn1cncn1)c1ccc(F)cc1F` (racemic), the MIC80 with Candida albicans is 0.016 µg/mL (≈ 0.0348 µM); in the assay on Candida tropicalis, 0.0097 µg/mL (≈ 0.0211 µM); in the assay on Candida parapsilosis, 0.004 µg/mL (≈ 0.00871 µM); in the assay on Pichia kudriavzevii, 0.25 µg/mL (≈ 0.544 µM); with Cryptococcus neoformans, 0.016 µg/mL (≈ 0.0348 µM); in the assay on Trichophyton rubrum, 0.0625 µg/mL (≈ 0.136 µM). The compound further yielded an MIC80 with Aspergillus fumigatus of 1 µg/mL (≈ 2.18 µM).
As for `OC(CN1CCC(=NOCc2cccc(F)c2)CC1)(Cn1cncn1)c1ccc(F)cc1F` (racemic), the MIC80 with Candida albicans turned out to be 0.016 µg/mL (≈ 0.0348 µM); against Candida tropicalis it was 0.016 µg/mL (≈ 0.0348 µM); in the assay with Candida parapsilosis, 0.016 µg/mL (≈ 0.0348 µM); with Pichia kudriavzevii it was 0.25 µg/mL (≈ 0.544 µM); against Cryptococcus neoformans, 0.016 µg/mL (≈ 0.0348 µM); in the assay on Trichophyton rubrum, 0.0625 µg/mL (≈ 0.136 µM). The compound further came in with an MIC80 in the assay with Aspergillus fumigatus of 0.25 µg/mL (≈ 0.544 µM).
In the case of `OC(CN1CCC(=NOCc2ccccc2F)CC1)(Cn1cncn1)c1ccc(F)cc1F` (racemic), the MIC80 amounted to 0.016 µg/mL (≈ 0.0348 µM) in the assay on Candida albicans; 0.001 µg/mL (≈ 0.00218 µM) against Candida tropicalis; 0.0625 µg/mL (≈ 0.136 µM) in the assay on Candida parapsilosis; 0.25 µg/mL (≈ 0.544 µM) in the assay with Pichia kudriavzevii; 0.004 µg/mL (≈ 0.00871 µM) against Cryptococcus neoformans; 0.0625 µg/mL (≈ 0.136 µM) against Trichophyton rubrum. In addition, the MIC80 in the assay on Aspergillus fumigatus was determined as 1 µg/mL (≈ 2.18 µM).
In the case of `OC(CN1CCC(=NOCc2ccc(Cl)cc2Cl)CC1)(Cn1cncn1)c1ccc(F)cc1F` (racemic), the MIC80 in the assay with Candida albicans worked out at 0.016 µg/mL (≈ 0.0313 µM); against Candida tropicalis, 0.016 µg/mL (≈ 0.0313 µM); in the assay on Candida parapsilosis it was 0.016 µg/mL (≈ 0.0313 µM); with Pichia kudriavzevii, 0.25 µg/mL (≈ 0.49 µM); in the assay with Cryptococcus neoformans, 0.016 µg/mL (≈ 0.0313 µM); against Trichophyton rubrum it was 0.0625 µg/mL (≈ 0.122 µM). The MIC80 in the assay on Aspergillus fumigatus came to 4 µg/mL (≈ 7.84 µM).
Regarding `OC(CN1CCC(=NOCc2ccc(Cl)cc2)CC1)(Cn1cncn1)c1ccc(F)cc1F` (racemic), the MIC80 in the assay on Candida albicans was determined as 0.0625 µg/mL (≈ 0.131 µM); with Candida tropicalis, 0.0625 µg/mL (≈ 0.131 µM); with Candida parapsilosis, 0.016 µg/mL (≈ 0.0336 µM); against Pichia kudriavzevii, 0.25 µg/mL (≈ 0.525 µM); against Cryptococcus neoformans, 0.001 µg/mL (≈ 0.0021 µM); against Trichophyton rubrum, 0.0625 µg/mL (≈ 0.131 µM). The compound also registered an MIC80 in the assay on Aspergillus fumigatus of 1 µg/mL (≈ 2.1 µM).
As for `OC(CN1CCC(=NOCc2cccc(Cl)c2)CC1)(Cn1cncn1)c1ccc(F)cc1F` (racemic), the MIC80 in the assay with Candida albicans came out at 0.016 µg/mL (≈ 0.0336 µM); against Candida tropicalis, 0.0625 µg/mL (≈ 0.131 µM); in the assay with Candida parapsilosis it was 0.0625 µg/mL (≈ 0.131 µM); in the assay with Pichia kudriavzevii it was 0.25 µg/mL (≈ 0.525 µM); in the assay on Cryptococcus neoformans, 0.001 µg/mL (≈ 0.0021 µM); with Trichophyton rubrum it was 0.016 µg/mL (≈ 0.0336 µM). The compound also returned an MIC80 against Aspergillus fumigatus of 1 µg/mL (≈ 2.1 µM).

The term MIC80 denotes an inhibitory concentration at the 80% level, which refers to growth in some studies and to a panel of isolates in others. High values mean lower susceptibility, low ones higher susceptibility.
